# Activity calls are given as the source filed them.
# Experiments:
# [1] = molecular target: T1, Rac GTPase-activating protein 1 (Homo sapiens, UniProt Q9H0H5); assay: blockers of MgcRacGAP-driven Rac1 GTP hydrolysis – biochemical, ADP Hunter fluorescence, primary and confirmatory, confirmation (AID 624330); assay type: functional
# T1 sequence (Q9H0H5 whole entry): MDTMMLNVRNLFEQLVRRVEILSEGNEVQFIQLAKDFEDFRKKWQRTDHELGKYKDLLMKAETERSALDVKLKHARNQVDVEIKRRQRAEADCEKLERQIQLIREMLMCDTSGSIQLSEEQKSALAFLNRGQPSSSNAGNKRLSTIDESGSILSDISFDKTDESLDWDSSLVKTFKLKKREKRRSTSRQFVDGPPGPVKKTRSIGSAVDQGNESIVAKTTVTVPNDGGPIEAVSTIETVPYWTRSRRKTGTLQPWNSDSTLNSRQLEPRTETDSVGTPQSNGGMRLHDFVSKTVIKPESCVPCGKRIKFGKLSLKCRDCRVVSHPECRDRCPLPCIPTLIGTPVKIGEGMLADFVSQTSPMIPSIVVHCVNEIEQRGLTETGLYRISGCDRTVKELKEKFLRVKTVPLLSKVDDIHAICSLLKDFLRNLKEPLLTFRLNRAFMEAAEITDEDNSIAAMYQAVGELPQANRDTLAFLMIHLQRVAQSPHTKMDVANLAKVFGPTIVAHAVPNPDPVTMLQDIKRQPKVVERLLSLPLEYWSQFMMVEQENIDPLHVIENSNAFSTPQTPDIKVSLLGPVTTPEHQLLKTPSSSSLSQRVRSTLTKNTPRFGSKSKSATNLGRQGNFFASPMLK
# [2] = viability of uninfected HEp-2 cells – cell-based, HTS, cytotoxicity control for RSV inhibitor project, dose response (AID 2410); assay type: functional; settings: human respiratory syncytial virus
# Cytochrome P450 1A2 = molecular target: T2, Cytochrome P450 1A2 (Homo sapiens, UniProt P05177);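 also: PubChem cytochrome P450 panel assay, CYP1A2 panel member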
# T2 sequence (P05177 whole entry): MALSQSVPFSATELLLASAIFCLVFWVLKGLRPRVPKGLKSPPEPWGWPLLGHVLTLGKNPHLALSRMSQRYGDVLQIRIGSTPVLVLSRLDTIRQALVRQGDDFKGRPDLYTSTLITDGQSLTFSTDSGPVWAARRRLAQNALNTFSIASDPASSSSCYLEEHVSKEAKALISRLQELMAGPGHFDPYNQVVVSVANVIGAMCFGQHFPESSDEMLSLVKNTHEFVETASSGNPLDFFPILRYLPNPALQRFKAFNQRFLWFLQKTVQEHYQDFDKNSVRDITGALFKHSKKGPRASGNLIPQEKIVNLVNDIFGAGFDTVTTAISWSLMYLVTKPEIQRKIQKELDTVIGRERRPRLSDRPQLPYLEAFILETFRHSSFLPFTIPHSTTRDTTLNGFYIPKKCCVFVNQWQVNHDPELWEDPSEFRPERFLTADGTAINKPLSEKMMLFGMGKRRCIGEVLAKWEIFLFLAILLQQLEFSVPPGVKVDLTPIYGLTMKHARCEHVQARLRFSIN
# P388/ADR = assay: cells; assay type: functional; settings: Mus musculus
# [3] = NIH-3T3 fibroblast cytotoxicity, dose response, cytotoxicity control, cell-based, fluorescence, Alamar Blue, secondary assay (AID 2327); assay type: functional;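 also: NIH-3T3 mouse fibroblasts cultured with fluconazole at 8 µg/mL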
# Cytochrome P450 2C9 = Cytochrome P450 2C9 (Homo sapiens, UniProt P11712)
# Chain of Cytochrome P450 2C9 (P11712 whole entry): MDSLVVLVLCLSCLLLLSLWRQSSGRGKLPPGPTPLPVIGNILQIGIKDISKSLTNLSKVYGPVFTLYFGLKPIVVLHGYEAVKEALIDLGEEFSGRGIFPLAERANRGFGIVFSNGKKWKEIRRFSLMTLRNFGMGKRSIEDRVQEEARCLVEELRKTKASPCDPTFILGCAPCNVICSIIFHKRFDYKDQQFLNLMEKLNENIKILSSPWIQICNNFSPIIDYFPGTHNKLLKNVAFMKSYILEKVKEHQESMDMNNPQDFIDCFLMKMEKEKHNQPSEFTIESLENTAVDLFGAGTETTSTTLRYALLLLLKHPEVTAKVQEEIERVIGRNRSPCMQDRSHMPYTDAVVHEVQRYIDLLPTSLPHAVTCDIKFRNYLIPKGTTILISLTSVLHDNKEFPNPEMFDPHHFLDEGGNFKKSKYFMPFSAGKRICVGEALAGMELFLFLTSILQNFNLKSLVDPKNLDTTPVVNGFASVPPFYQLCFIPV
# [4] = molecular target: T3, Replicative DNA helicase DnaB (Mycobacterium tuberculosis, UniProt P9WMR3); assay: DnaB intein splicing inhibitors, dose response, biochemical, cell-free fluorescence (AID 449749); assay type: functional
# T3 sequence (P9WMR3 whole entry): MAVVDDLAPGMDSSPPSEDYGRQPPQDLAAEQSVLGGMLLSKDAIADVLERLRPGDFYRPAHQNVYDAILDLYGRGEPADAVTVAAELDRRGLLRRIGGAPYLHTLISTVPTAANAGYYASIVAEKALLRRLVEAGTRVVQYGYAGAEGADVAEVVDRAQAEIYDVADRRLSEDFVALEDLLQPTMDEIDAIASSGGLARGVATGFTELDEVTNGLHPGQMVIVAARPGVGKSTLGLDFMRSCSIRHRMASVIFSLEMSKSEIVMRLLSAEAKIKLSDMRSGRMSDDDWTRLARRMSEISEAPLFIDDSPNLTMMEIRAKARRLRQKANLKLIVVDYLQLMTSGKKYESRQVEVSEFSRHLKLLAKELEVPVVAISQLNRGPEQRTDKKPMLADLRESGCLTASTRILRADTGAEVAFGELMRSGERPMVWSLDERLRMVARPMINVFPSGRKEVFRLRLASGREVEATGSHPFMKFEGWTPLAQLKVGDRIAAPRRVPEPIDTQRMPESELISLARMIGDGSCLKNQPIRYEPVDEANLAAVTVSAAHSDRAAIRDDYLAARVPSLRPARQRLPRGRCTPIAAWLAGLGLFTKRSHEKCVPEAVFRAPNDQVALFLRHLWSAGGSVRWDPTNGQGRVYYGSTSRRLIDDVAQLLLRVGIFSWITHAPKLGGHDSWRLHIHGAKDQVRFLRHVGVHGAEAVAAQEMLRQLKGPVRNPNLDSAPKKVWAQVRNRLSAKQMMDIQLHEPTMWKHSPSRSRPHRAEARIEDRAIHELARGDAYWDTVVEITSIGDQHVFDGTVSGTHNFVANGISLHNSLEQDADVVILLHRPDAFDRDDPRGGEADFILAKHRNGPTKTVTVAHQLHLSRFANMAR
# Protein RecA = molecular target: T4, Protein RecA (Mycobacterium tuberculosis, UniProt P9WHJ3); assay: Fluorescence Cell-Free Homogeneous Dose Retest to Identify Inhibitors of RecA-Intein Splicing Activity. [Related pubchem assays (depositor defined):AID2097, AID2223, AID489010, AID492950]; assay type: functional
# T4 sequence (P9WHJ3 whole entry): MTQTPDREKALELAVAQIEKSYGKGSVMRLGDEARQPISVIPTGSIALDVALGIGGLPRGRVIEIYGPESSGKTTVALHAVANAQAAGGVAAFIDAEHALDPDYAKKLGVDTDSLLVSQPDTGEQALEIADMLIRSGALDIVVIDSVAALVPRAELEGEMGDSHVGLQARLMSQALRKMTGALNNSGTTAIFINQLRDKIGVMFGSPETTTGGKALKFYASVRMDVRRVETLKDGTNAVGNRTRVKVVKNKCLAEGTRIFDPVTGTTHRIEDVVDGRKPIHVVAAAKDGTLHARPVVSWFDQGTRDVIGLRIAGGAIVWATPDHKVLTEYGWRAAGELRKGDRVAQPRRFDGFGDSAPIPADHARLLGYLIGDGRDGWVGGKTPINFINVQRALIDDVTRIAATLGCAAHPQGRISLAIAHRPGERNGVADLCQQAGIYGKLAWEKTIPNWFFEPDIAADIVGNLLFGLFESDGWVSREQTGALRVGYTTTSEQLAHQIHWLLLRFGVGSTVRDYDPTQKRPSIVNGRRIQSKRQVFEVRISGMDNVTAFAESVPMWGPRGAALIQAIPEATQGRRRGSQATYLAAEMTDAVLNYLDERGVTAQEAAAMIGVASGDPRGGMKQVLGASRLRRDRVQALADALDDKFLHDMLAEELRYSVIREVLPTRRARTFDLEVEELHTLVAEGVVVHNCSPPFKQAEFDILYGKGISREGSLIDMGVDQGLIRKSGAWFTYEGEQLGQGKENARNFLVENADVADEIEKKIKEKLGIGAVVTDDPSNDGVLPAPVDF
compound,measurement,setting,value
Cc1ccc(N2C(S)=C(C#N)C(=O)NC2c2cccs2)cc1 (stereo not drawn),IC50,[1],128 µM (active)
Oc1ncnc2scc(-c3ccc(Br)cc3)c12,CC50,[2],> 50 µM (active)
CN(C)CCn1c(C(=O)O)cc2ccccc21,AC50,Cytochrome P450 1A2,0.0158 µM (inconclusive)
COc1ccccc1Nc1ncc(-c2cccs2)s1,CC50,[2],43 µM (active)
C/C=C(\C)C(=O)OC1C2C(C)=CC(=O)C(O)C2(C)C2C3(O)OCC24C1OC(=O)C(OC(C)=O)C4C(C)C3O (stereo not drawn),GI50,P388/ADR,0.319 µM (active)
O=c1c2ccccc2nc(-c2ccc([N+](=O)[O-])cc2)n1O,EC50,[3],> 150 µM (inactive)
Cc1oc(-c2ccccc2Cl)nc1CSCC(=O)NC1CC1,AC50,Cytochrome P450 2C9,20 µM (inconclusive)
CCN(Cc1ccccc1)C1CCN(Cc2ccc(SC)cc2)CC1,IC50,[1],100 µM (active)
COC(=O)Cc1c(C)nc2nc(NCc3ccccc3OC)nn2c1O,AC50,Cytochrome P450 2C9,22.4 µM (inconclusive)
CC1(C)OC(C)(C)C(/C=N/c2ccc(O)cc2)=C1O,IC50,[1],17 µM (active)
CC1=NNC(=O)C1Cc1ccccc1 (stereo not drawn),AC50,[4],0.651 µM (active)
same,EC50,Protein RecA,0.294 µM (active)
COc1ccc(C)cc1Nc1nc(N)c2ccccc2n1,CC50,[2],> 50 µM (active)
O=C(CNCc1ccc(Cl)cc1)Nc1ccc2c(c1)OCCO2,IC50,[1],156 µM (active)
COc1ccc(-c2cc(OC)c3ccccc3n2)cc1,CC50,[2],> 50 µM (active)
COc1cc(N)c(Cc2nccc3cc(OC)c(OC)cc23)cc1OC,AC50,[4],> 380 µM (inactive)
same,EC50,Protein RecA,31.7 µM (active)
COc1ccc(CN2CN(c3ccc(Cl)cc3)C(=O)N(n3cnnc3)C2)cc1,AC50,Cytochrome P450 2C9,39.8 µM (inconclusive)
same,AC50,Cytochrome P450 1A2,15.8 µM (inconclusive)
CN(C)/C=N/c1nc(-c2ccc3ccccc3c2)cs1,CC50,[2],22.8 µM (active)
C=CCc1cccc(/C=N/c2cnc(O)nc2O)c1O,AC50,[4],> 380 µM (inactive)
same,EC50,Protein RecA,> 380 µM (inconclusive)
c1ccc(SC(Sc2ccccc2)c2ccc3c(c2)OCO3)cc1,AC50,Cytochrome P450 1A2,0.501 µM (inconclusive)
CCNC(=O)c1ccccc1-c1nc(-c2ccccc2)no1,AC50,[4],> 380 µM (inactive)
same,EC50,Protein RecA,> 380 µM (inactive)
NS(=O)(=O)c1cccc(NC(=O)COC(=O)c2cc(-c3ccc(Cl)cc3)nc3ccccc23)c1,CC50,[2],18.5 µM (active)
CCn1c(SCc2ccc(Cl)cc2Cl)nc2nc3c(cc2c1=O)CCCC3,AC50,Cytochrome P450 2C9,5.01 µM (inconclusive)
CNc1cc([N+](=O)[O-])ccc1OCc1ccccc1,CC50,[2],18.7 µM (active)
CC1(C)SC(=S)N(NC(=O)Nc2ccccc2)C1N(O)C(=O)Nc1ccccc1 (stereo not drawn),AC50,Cytochrome P450 1A2,28.2 µM (inconclusive)
CC(C)C(=O)N1CCN(c2c(Cl)cccc2[N+](=O)[O-])CC1,CC50,[2],16.3 µM (active)
CNC(=S)N1CCN(c2ccccc2OC)CC1,AC50,Cytochrome P450 2C9,14.1 µM (inconclusive)
Cc1onc(-c2c(Cl)cccc2Cl)c1C(=O)N1C(C)CCCC1C (stereo not drawn),AC50,[4],118 µM (active)
same,EC50,Protein RecA,> 380 µM (inactive)
COC(=O)c1ccc2c(=O)n(CCO)c(=S)[nH]c2c1,CC50,[2],25.2 µM (active)
COc1ccc(/C=N/N=C(\N)c2nonc2N)cc1OC,CC50,[2],30.9 µM (active)
CCOC(=O)/C(C#N)=C1\C(=O)N(Cc2ccccc2)c2ccccc21,IC50,[1],42.4 µM (active)
COC(=O)[C@@]1(Cc2ccccc2)[C@H]2c3cc(C(=O)N4CCCC4)n(C)c3C[C@H]2CN1C(=O)c1ccccc1,AC50,Cytochrome P450 1A2,25.1 µM (inconclusive)
O=C(N/N=C/c1ccc(O)cc1)NC12CC3CC(CC(C3)C1)C2,IC50,[1],55.9 µM (active)
Oc1ccc(-c2nccs2)cc1,IC50,[1],28.1 µM (active)
CCOC(=O)[C@H](N)/C=C(\C)CP(=O)(O)O,AC50,Cytochrome P450 2C9,25.1 µM (inconclusive)
CCC(C)Oc1ccc(/C=C/c2nc(O)nc(O)c2[N+](=O)[O-])cc1OC (stereo not drawn),CC50,[2],12.9 µM (active)
Cc1ccccc1OC[C@H](O)CO,AC50,Cytochrome P450 1A2,15.8 µM (inconclusive)
COc1ccc(S(=O)(=O)NC2(C(F)(F)F)N=C3SCCN3C2=O)cc1 (stereo not drawn),AC50,Cytochrome P450 2C9,28.2 µM (inconclusive)
same,AC50,Cytochrome P450 1A2,31.6 µM (inconclusive)
COCCn1c(=O)cnc2cnc(Nc3cccc(OC)c3)nc21,AC50,Cytochrome P450 2C9,25.1 µM (inconclusive)
O=C(NC(=C(Cl)Cl)S(=O)(=O)c1ccc(Cl)cc1)c1ccccc1,AC50,[4],> 380 µM (inactive)
same,EC50,Protein RecA,1.53 µM (active)
COC(=O)c1ccccc1OC(=O)c1ccc(Br)o1,AC50,[4],12.8 µM (active)
same,EC50,Protein RecA,15.2 µM (active)
CC(NCc1ccc(S(N)(=O)=O)cc1)C(=O)N1c2ccccc2CC1C (stereo not drawn),IC50,[1],135 µM (active)
Cc1ccc(OCC(=O)NC2=NCCS2)cc1,AC50,Cytochrome P450 2C9,10 µM (inconclusive)
COC(=O)c1ccccc1OCC(=O)N1CCN(c2ccc(Cl)cc2)CC1,AC50,Cytochrome P450 2C9,14.1 µM (inconclusive)
same,AC50,Cytochrome P450 1A2,14.1 µM (inconclusive)
CCOc1cc(C(c2c(C)n[nH]c2O)c2c(C)n[nH]c2O)ccc1OS(=O)(=O)c1ccc(C)cc1,AC50,[4],0.413 µM (active)
same,EC50,Protein RecA,0.152 µM (active)
CN(C)c1ncc2nc(-c3ccccc3)c(=O)n(Cc3ccc(F)cc3)c2n1,AC50,Cytochrome P450 1A2,12.6 µM (inconclusive)
CN1C(=O)C(Cc2ccc3c(c2)OCO3)C(=O)N(C)C1=O,AC50,[4],35.3 µM (active)
same,EC50,Protein RecA,10 µM (active)

# Source: ChEMBL document CHEMBL1201862, “PubChem BioAssay data set” (2004)
